According to patent publication US8436011B2, “Pyridinopyridinone derivatives, preparation thereof and therapeutic use thereof” (Sanofi, priority 2008, dated 2013):

Target: T1, FLT3 receptor (MV4-11 cell line bearing an FLT3ITD mutant) (Homo sapiens, UniProt P36888, INS600HVDFREYEYD)
T1 construct: MV4-11 cell line, which line is established from a leukaemia of constitutively active AML type bearing an FLT3ITD mutant; endogenous in cells; host or cells: MV4-11
T1 sequence (P36888 with tags, fused parts or gaps INS600HVDFREYEYD): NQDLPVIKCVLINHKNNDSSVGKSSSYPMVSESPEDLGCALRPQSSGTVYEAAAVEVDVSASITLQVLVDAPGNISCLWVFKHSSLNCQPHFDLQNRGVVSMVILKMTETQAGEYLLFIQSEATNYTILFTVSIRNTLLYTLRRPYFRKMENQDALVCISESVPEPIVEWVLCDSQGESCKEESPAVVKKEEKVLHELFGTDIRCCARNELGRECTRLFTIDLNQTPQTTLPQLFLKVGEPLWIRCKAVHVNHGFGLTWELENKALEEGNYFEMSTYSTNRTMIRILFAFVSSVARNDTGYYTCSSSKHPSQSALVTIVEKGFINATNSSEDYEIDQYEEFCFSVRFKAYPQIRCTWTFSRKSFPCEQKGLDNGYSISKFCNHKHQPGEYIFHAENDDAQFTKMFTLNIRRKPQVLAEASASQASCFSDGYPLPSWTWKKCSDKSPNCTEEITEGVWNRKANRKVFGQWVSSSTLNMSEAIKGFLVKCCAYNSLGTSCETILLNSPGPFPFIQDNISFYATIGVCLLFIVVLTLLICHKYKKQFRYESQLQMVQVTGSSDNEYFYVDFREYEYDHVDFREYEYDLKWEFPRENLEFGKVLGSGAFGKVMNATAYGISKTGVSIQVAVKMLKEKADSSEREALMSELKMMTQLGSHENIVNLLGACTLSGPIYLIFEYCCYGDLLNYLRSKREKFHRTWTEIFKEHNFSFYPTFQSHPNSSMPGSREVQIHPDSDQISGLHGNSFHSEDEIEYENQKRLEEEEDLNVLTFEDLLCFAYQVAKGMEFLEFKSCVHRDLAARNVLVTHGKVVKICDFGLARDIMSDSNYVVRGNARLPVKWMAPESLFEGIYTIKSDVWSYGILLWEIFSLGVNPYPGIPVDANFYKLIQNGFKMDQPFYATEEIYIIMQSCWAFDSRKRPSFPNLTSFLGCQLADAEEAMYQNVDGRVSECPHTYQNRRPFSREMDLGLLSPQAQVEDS
Experiment: Inhibition of FLT3 receptor tyrosine kinase activity: proliferation of MV4-11 cells (CellTiter-Glo, 72 h)
Format: cell-based
Settings: 72 hours incubation, read-out: IC50 (concentration that inhibits 50% of the proliferation of the MV4-11 cells)
Protocol: Measurement of Inhibition of the Tyrosine Kinase Activity of the FLT3 Receptor
The inhibitory effect of the compounds according to the invention towards the tyrosine kinase activity of the FLT3 receptor was evaluated on an MV4-11 cell line, which line is established from a leukaemia of constitutively active AML type bearing an FLT3ITD mutant. The inhibitory activity is correlated to the inhibition of cell growth, according to the protocols described by Spiekermann, K. et al., Blood, 2003, 101, (4) 1494-1504 and O'Farrell, A.-M. et al., Blood, 2003, 101, (9) 3597-3605.
MV4-11 cells are washed with PBS buffer and inoculated in 96-well plates, at a density of 1×10^5 cells/ml (100 μL per well), in RPMI 1640 containing 10% FCS, in the presence or absence of the test compounds. After incubation for 72 hours, the viable cells are quantified by measuring the cellular ATP by means of the CellTiter-Glo® kit (Promega, Cat G7571). The cells are treated according to the instructions given by the kit manufacturer, and the luminescence is measured using a Luminoskan (Ascent, Labsystem) with the following parameters: measurement: single; integration time: 1000 ms, lag time: 5 s.
The inhibitory activity with respect to the FLT3 receptor is given by the concentration that inhibits 50% of the proliferation of the MV4-11 cells.

IC50 | SMILES
56 nM | CCn1c(N)c(C(=O)NC)c(=O)c2ccc(-c3ccc(CC(=O)NCC4COCCN4C4CC4)cc3)nc21 (centres unmarked) [compound 33, 2-amino-7-[4-(2-{[(4-cyclopropylmorpholin-3-yl)methyl]amino}-2-oxoethyl)phenyl]-1-ethyl-N-methyl-4-oxo-1,4-dihydro-1,8-naphthyridine-3-carboxamide]
190 nM | CCN1CC(F)(F)C[C@H]1CNC(=O)Cc1ccc(-c2ccc3c(=O)c(C(=O)NC)c(N)n(CC)c3n2)cc1 [compound 24, 2-amino-1-ethyl-7-{4-[2-({[(2S)-1-ethyl-4,4-difluoropyrrolidin-2-yl]methyl}-amino)-2-oxoethyl]phenyl}-N-methyl-4-oxo-1,4-dihydro-1,8-naphthyridine-3-carboxamide]
